Measurements as given in patent US8901177B2, “Method of treating bladder disorders” (Targacept, Inc., priority 2012, dated 2014).
“Also recorded” adds a separate entry of the source.

Experiments:
[1] = Clinical trial for treatment of depression: rates of urinary tract infection and urinary retention; type: in vivo, human; conditions: oral tablets 0.1, 0.5, 2 or 4 mg BID
Experimental: FIG. 24 is a table showing rates of urinary tract infection (UTI) and urinary retention in human patients administered dexmecamylamine in a yet unpublished clinical trial for treatment of depression. Patients received orally administered dexmecamylamine tablets of 0.1 mg, 0.5 mg, 2 mg or 4 mg BID (twice daily). At the end of the trial period, the patients were evaluated and the rates of side effects, including urinary tract infection (UTI) and urinary retention, were recorded.

[2] = Urinary excretion and bladder/urine concentration after oral dosing, clinical program for depression; type: in vivo, human; conditions: for excretion unchanged in the urine: human, in vivo
Experimental: One aspect of the present invention is the use of dexmecamylamine as an oral agent for intravesical drug delivery. Oral doses (up to 4 mg BID) of dexmecamylamine evaluated during clinical studies for depression produced concentrations in the bladder in excess of 10 μM. […] Nicotinic receptors, including α3, α7, and β4, are expressed in the bladder urothelium itself. Agents that block nicotinic receptors in the bladder, such as hexamethonium, decrease bladder contractions and may block sensation of urgency. Inhibition of the α3 receptor diminishes bladder contraction frequency and afferent signaling to the brain (via P2X), thereby blocking or reducing the sensation of urgency. […] (Xu et al., Megacystis, mydriasis, and ion channel defect in mice lacking the α3 neuronal nicotinic acetylcholine receptor, Proc. Natl. Acad. Sci., Vol. 96, pp. 5746-5751, May 1999.)
During the dexmecamylamine clinical program for depression, including the initial phase 1 study (conducted by Targacept), ≧90% of orally administered dexmecamylamine was excreted unchanged in the […].

[3] = Mouse carcinogenicity studies; type: in vivo; conditions: much higher doses and concentrations than in the clinical program
From the text: Further, the Summary Basis of Approval for Detrol® indicates similar (lower rates) of bladder dilatation, as is noted in dexmecamylamine's carcinogenicity studies. Urinary retention, and concomitant urinary tract infection, is not anticipated to be a therapy-limiting side effect for relatively low doses and concentrations of dexmecamylamine (FIG. 24).

[4] = target: T1, human α3β4 channels (Homo sapiens, UniProt P30926+P32297); assay: Use-dependent inhibition of human α3β4 channels expressed in CHO cells (Dynaflow electrophysiology); type: cell-based
T1 construct: host or cells: CHO cells
T1 sequence (P32297 32-505): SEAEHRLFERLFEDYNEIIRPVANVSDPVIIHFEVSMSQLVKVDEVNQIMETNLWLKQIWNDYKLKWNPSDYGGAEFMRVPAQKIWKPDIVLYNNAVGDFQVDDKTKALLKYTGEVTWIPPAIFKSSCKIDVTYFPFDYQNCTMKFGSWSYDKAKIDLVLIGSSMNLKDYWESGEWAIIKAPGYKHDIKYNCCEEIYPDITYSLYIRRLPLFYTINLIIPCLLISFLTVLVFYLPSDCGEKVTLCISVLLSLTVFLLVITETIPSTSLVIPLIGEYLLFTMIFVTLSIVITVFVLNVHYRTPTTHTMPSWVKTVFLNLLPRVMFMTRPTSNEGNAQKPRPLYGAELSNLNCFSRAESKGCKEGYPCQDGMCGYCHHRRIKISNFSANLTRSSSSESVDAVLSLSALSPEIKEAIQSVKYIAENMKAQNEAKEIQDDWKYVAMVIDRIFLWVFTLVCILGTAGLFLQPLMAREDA
T1 sequence (P30926 22-498): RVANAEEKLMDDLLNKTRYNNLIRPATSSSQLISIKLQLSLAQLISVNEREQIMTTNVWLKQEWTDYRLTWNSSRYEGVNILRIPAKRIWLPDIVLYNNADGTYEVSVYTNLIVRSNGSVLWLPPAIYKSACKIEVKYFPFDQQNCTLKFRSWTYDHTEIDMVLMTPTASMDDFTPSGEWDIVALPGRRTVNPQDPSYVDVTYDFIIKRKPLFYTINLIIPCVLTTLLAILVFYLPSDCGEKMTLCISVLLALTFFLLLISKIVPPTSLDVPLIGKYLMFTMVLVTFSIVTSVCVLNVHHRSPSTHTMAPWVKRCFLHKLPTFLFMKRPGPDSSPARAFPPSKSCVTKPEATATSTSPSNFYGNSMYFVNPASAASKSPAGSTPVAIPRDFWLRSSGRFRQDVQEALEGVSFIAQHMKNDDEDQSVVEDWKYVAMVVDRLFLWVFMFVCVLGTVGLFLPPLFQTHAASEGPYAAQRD
Experimental: There was an assumption that the dependence on the number of co-applications would be the most relevant to clinical concentrations, since upon the time of exposure in vivo, the number of open channels could reach substantial numbers; perhaps due to channel spontaneous opening, flickering, and endogenous transmitter release as a result of brain activity. All experiments were performed using a conventional Dynaflow (Cellectricon Inc.) electrophysiological system. Dynaflow settings: To achieve continuous exposure to the drug we used following Dynaflow chip loading. An example of standard chip loading for use-dependent experiments with example for 30 μM ACh and 0.1 μM of TC-05231 (racemic mecamylamine). For the following experiments, ACh always consisted of 30 μM and concentrations of compounds were, 0.03, 0.1, 0.3 and 1.0 (μM). FIG. 13 illustrates the settings.
Applications were performed by positioning the cell in front of channel #1 for 1 second, followed by channel #3, then back to channel #1 by rapidly moving the Dynaflow chip, which consisted of both the laminar flow from the channels and the entire bath solution. The additional channels between control and ACh-containing channel were used: (1) to provide the needed space for an additional washout to avoid contaminating the control channels with the agonist solution; and (2) to allow for the necessary amount of time for the Dynaflow stage to reach its optimum scanning speed.
3.1. Establishment of recording baseline: First, pipette with cells moved to channel #3. Then cells were exposed to ACh by moving cells to channel #1 for 1 second and back to channel #3. This movement of cells was repeated 10 times at 30 second intervals;
3.2. Collection data on use-dependent inhibition: After establishment of stable baseline, cells were moved to channel #6 and exposed to a test compound for 30 sec. Then cells were moved to channel #8 for 1 second and back to channel #6 for 30 seconds (total 10 times with intervals 30 seconds); and 3.3. To test reversibility of block (washout): repeat step 1. Note: with this chip setting, during repeated application of acetylcholine plus test compound, there was no interruption in application of compounds. For all calculations, peak current amplitude was normalized to the peak current amplitude evoked by the 10th application of acetylcholine. Experimental Results

[5] = system: bladder function in conscious Sprague Dawley rats; assay: Oral administration (gavage) in awake, conscious rats, cystometry; conditions: 1 mg/kg oral gavage; for bladder contraction amplitude: compared to baseline/control; for change in spontaneous activity (SA), a surrogate for urge: compared to control; for change in bladder capacity / change in micturition interval / ICI / change in micturition volume: relative to baseline/control
Experimental: A further study was conducted to evaluate the effects of TC-5214 on bladder function in awake, conscious Sprague Dawley rats.
Nine female Sprague Dawley rats received intravesical saline at a rate of 10 mL/hr. Following a 60-minute baseline evaluation, rats were administered dexmecamylamine at a dose of 1 mg/kg by oral gavage, a dose previously determined to be the “No Effect Dose” in safety pharmacology studies. Two hours following the oral administration of dexmecamylamine, cystometric parameters were collected over a period of one hour.

With `CNC1(C)[C@H]2CCC(C2)C1(C)C` (stereo partly drawn) [TC-5214, (S)—N,2,3,3-tetramethylnorbornan-2-amine] the “side effects due to urinary retention” value [1] was “without therapy-limiting side effects due to urinary retention”, the “expected mean concentrations (urine) in humans” value ([2]; 0.5 mg BID dosing) was “approximately 3 μM” and the mean urine concentrations ([2]; 1 mg BID) was “approximately 6 μM”. The “excretion unchanged in the urine” value [2] was “eliminated unchanged in the urine”, the “excretion unchanged in the urine” value ([2]; listed as dexmecamylamine) was “excreted almost entirely unchanged in the urine” and the “concentrations in the bladder” value ([2]; oral doses up to 4 mg BID) was over 10 µM. The “orally administered dose excreted unchanged in the bladder” value ([2]; oral, clinical program for depression incl. initial phase 1 study) was at least 90%, the urinary retention [3] was “urinary retention was noted” and the “peak current normalized to 10th ACh application (positive modulation, FIG. 16)” value ([4]; 30 nM compound + 30 μM ACh, first co-application, control = 100, SEM and n in next columns) was 113.3. For the same compound, the “positive modulation of α3β4 function” value ([4]; 30 nM, t-test p<0.05) was “weak positive modulation”, the “inhibition of human α3β4 receptor (asymptotes to the curve, FIG. 14)” value ([4]; 100 nM compound with acetylcholine) was “minor to no detectable inhibition” and the “Inhibition by (%)” value ([4]; 100 nM compound, after 10 co-applications of 30 uM Ach and compound) was 10% ± 6%. It also gave an activity at 0.03 µM ([4]; CHO, 30 nM compound + 30 μM ACh, successive grid rows = co-applications 1 to 10, control = 100, read-out: peak current amplitude normalized to 10th ACh application, use-dependent inhibition box) of 113%, an activity at 0.1 µM ([4]; CHO, 100 nM compound + 30 μM ACh, successive grid rows = co-applications 1 to 10 at 30 s intervals, control = 100, read-out: peak current amplitude normalized to 10th ACh application, use-dependent inhibition box) of 100% and an inhibition at 0.1 µM ([4]; CHO, 100 nM compound, after 10 co-applications of 30 uM Ach and compound, read-out: Inhibition by (%)) of 10.1%. For the same compound, the “recovery (%)” value ([4]; after 100 nM compound, following 10 application of Ach (30 uM) alone) was 96% ± 6%, the “recovery / persistence of inhibition after wash out” value ([4]; after 30 and 100 nM compound, agonist alone) was “full recovery” and the “bladder contraction amplitude” value [5] was “placebo-like”. The “bladder contraction amplitude” value ([5]; listed as dexmecamylamine) was “without producing detrimental changes; also recorded: insignificant effect”, the “change in spontaneous activity (SA), a surrogate for urge” value [5] was “statistically significant differential” and the “change in spontaneous activity (SA), a surrogate for urge” value ([5]; listed as dexmecamylamine) was “significant decrease”. The “bladder compliance” value ([5]; relative to baseline) was “without producing detrimental changes”, the “micturition pressure” value ([5]; relative to baseline) was “without producing detrimental changes” and the “change in bladder capacity” value [5] was “statistically significant increase”. For the same compound, the “change in micturition interval / ICI” value [5] was “statistically significant increase”, the “change in micturition volume” value [5] was “statistically significant increase” and the “change in bladder capacity” value ([5]; listed as dexmecamylamine) was “statistically significant (Student paired-t test) increases”. The “change in micturition interval / ICI” value ([5]; listed as dexmecamylamine) was “statistically significant (Student paired-t test) increases”, the “change in micturition volume” value ([5]; listed as dexmecamylamine) was “statistically significant (Student paired-t test) increases” and the micturition interval ([5]; Last 1H (from 2 h after dosing), baseline First 1H 6.44 ± 1.24, FIG. 25 gives minutes) was 9.44 ± 1.87. For the same compound, the “RV (Bcap-MV)” value ([5]; Last 1H, baseline First 1H 0.06 ± 0.02) was 0.09 ± 0.04, the B compliance ([5]; Last 1H, baseline First 1H 0.11 ± 0.03) was 0.13 ± 0.03 and the Bcap ([5]; Last 1H, baseline First 1H 1.04 ± 0.24) was 1.58 ± 0.31. For the same compound, the “SA (IMP-BP)” value ([5]; Last 1H, baseline First 1H 6.55 ± 2.01) was 6.99 ± 2.57, the “BP (baseline)” value ([5]; Last 1H, baseline First 1H 10.39 ± 1.96) was 8.60 ± 1.10 and the IMP ([5]; Last 1H, baseline First 1H 16.94 ± 3.94) was 15.6 ± 2.91. The TP ([5]; Last 1H, baseline First 1H 23.27 ± 3.82) was 23.3 ± 2.0, the NOEL (30 days oral) was 1 mg/kg/day and the “mortality and histopathologic changes” value (doses up to and including 50 mg/kg/day) was “did not produce any mortalities nor any histopathologic changes”.
